EP4806891A1 (Kangbaida (Sichuan) Biotechnology Co., Ltd., priority 2023, dated 2025)

The compounds below were run against T1, HEK-Blue-hTLR7 cells (Homo sapiens, UniProt Q9NYK1) (assay: HEK-Blue-hTLR7 cell inhibition assay). Conditions: R848 0.8 µM, 16 h, OD 620 nm, read-out: TLR7 IC50.
T1 construct: expressed in transfected cells; host or cells: HEK-Blue-hTLR7 cells (HEK293-derived reporter line)
T1 sequence (Q9NYK1 27-1049): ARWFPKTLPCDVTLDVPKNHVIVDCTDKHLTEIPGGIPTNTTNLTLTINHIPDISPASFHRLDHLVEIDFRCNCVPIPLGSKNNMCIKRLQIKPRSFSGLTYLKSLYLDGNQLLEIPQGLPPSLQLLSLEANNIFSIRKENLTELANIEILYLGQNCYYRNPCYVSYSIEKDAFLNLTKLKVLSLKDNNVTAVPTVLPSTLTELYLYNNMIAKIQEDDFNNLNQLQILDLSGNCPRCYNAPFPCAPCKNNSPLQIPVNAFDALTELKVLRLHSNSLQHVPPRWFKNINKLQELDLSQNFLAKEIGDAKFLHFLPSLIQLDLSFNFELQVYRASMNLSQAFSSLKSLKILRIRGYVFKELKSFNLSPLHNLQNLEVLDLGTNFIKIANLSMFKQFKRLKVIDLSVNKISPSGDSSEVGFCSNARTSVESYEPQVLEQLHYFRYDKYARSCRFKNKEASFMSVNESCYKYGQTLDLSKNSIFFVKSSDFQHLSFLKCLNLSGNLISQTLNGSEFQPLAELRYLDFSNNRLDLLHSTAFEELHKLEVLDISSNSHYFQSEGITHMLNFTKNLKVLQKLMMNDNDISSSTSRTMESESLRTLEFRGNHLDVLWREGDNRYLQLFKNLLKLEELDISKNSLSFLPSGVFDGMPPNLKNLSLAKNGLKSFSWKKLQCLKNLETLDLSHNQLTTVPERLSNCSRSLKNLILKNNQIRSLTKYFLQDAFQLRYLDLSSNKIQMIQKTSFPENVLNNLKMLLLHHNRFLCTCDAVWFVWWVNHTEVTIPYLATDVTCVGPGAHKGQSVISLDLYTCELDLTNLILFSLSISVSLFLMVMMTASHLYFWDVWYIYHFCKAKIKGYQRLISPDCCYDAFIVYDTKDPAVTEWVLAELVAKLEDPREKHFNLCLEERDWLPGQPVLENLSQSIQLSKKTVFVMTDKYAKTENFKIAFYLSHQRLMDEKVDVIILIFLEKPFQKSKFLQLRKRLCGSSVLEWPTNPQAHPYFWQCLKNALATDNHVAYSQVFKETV
Format: cell-based
In short: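 Cells were pre-incubated 4 h, then co-treated 16 h at 37 °C with compound (10 doses, 0.5–10000 nM final) plus R848 (0.8 µM for TLR7, 3 µM for TLR8) or ODN2006 (1 µM, TLR9). Reporter OD620 gave inhibition relative to DMSO blank and agonist-only controls; IC50 came from curve fitting.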

Compared with `CN1CCC(c2nnc([C@]34CN(c5ccc(C#N)n6ncc(Cl)c56)C[C@@]3(C(F)(F)F)C4)o2)CC1` [Compound 84, 3-chloro-4-((1S,5R)-1-(5-(1-methylpiperidin-4-yl)-1,3,4-oxadiazol-2-yl)-5-(trifluoromethyl)-3-azabicyclo[3.1.0]hexan-3-yl)pyrazolo[1,5-a]pyridine-7-carbonitrile], `CN1CCC(c2nnc([C@]34CN(c5c(Br)cc(C#N)n6ncc(Br)c56)C[C@@]3(C(F)(F)F)C4)o2)CC1` [Compound 85, 3,5-dibromo-4-((1S,5R)-1-(5-(1-methylpiperidin-4-yl)-1,3,4-oxadiazol-2-yl)-5-(trifluoromethyl)-3-azabicyclo[3.1.0]hexan-3-yl)pyrazolo[1,5-a]pyridine-7-carbonitrile] is higher in IC50: < 100 nM for the first, > 1000 nM for the second. The first is the more potent here.

`CN1CCC(c2nnc([C@]34CN(c5c(Br)cc(C#N)n6nccc56)C[C@@]3(C(F)(F)F)C4)o2)CC1` [Compound 86, 5-bromo-4-((1S,5R)-1-(5-(1-methylpiperidin-4-yl)-1,3,4-oxadiazol-2-yl)-5-(trifluoromethyl)-3-azabicyclo[3.1.0]hexan-3-yl)pyrazolo[1,5-a]pyridine-7-carbonitrile] and `CN1CCC(c2nnc([C@]34CN(c5ccc(C#N)c6ncnn56)C[C@@]3(C(F)(F)F)C4)o2)CC1` [Compound 91, 5-((1S,5R)-1-(5-(1-methylpiperidin-4-yl)-1,3,4-oxadiazol-2-yl)-5-(trifluoromethyl)-3-azabicyclo[3.1.0]hexan-3-yl)-[1,2,4]triazolo[1,5-a]pyridine-8-carbonitrile] cannot be ordered by IC50: < 1000 nM for the first, < 100 nM for the second.

`CN1CCC(c2nnc([C@]34CN(c5ccc(C(F)(F)F)n6nccc56)C[C@@]3(C(F)(F)F)C4)o2)CC1` [Compound 87, 2-(1-methylpiperidin-4-yl)-5-((1S,5R)-5-(trifluoromethyl)-3-(7-(trifluoromethyl)pyrazolo[1,5-a]pyridin-4-yl)-3-azabicyclo[3.1.0]hexan-1-yl)-1,3,4-oxadiazole] and `CN1CCC(F)(c2nnc([C@]34CN(c5ccc(C#N)n6nccc56)C[C@@]3(C(F)(F)F)C4)o2)CC1` [Compound 90, 4-((1S,5R)-1-(5-(4-fluoro-1-methylpiperidin-4-yl)-1,3,4-oxadiazol-2-yl)-5-(trifluoromethyl)-3-azabicyclo[3.1.0]hexan-3-yl)pyrazolo[1,5-a]pyridine-7-carbonitrile] cannot be ordered by IC50: < 100 nM for the first, < 100 nM for the second.

`CN1CCC(Oc2nnc([C@]34CN(c5ccc(C(F)(F)F)c6ncccc56)C[C@@]3(C(F)(F)F)C4)o2)CC1` [Compound 92, 2-((1-methylpiperidin-4-yl)oxy)-5-((1S,5R)-5-(trifluoromethyl)-3-(8-(trifluoromethyl)quinolin-5-yl)-3-azabicyclo[3.1.0]hexan-1-yl)-1,3,4-oxadiazole] and `CN1CCC(Oc2nnc([C@]34CN(c5ccc(OC(F)(F)F)c6ncccc56)C[C@@]3(C(F)(F)F)C4)o2)CC1` [Compound 93, 2-((1-methylpiperidin-4-yl)oxy)-5-((1S,5R)-5-(trifluoromethyl)-3-(8-(trifluoromethoxy)quinolin-5-yl)-3-azabicyclo[3.1.0]hexan-1-yl)-1,3,4-oxadiazole] cannot be ordered by IC50: < 100 nM for the first, < 1000 nM for the second.

`CN1CCC(O)(c2nnc([C@]34CN(c5ccc(C(F)(F)F)c6ncccc56)C[C@@]3(C(F)(F)F)C4)o2)CC1` [Compound 94, 1-methyl-4-(5-((1S,5R)-5-(trifluoromethyl)-3-(8-(trifluoromethyl)quinolin-5-yl)-3-azabicyclo[3.1.0]hexan-1-yl)-1,3,4-oxadiazol-2-yl)piperidin-4-ol] and `CN1CC(Cc2nnc([C@]34CN(c5ccc(C(F)(F)F)c6ncccc56)C[C@@]3(C(F)(F)F)C4)o2)C1` [Compound 95, 2-((1-methylazetidin-3-yl)methyl)-5-((1S,5R)-5-(trifluoromethyl)-3-(8-(trifluoromethyl)quinolin-5-yl)-3-azabicyclo[3.1.0]hexan-1-yl)-1,3,4-oxadiazole] cannot be ordered by IC50: < 100 nM for the first, < 100 nM for the second.

`FC(F)(F)Oc1ccc(N2C[C@]3(c4nnc(C5(F)CCNCC5)o4)C[C@]3(C(F)(F)F)C2)c2cccnc12` [Compound 96, 2-(4-fluoropiperidin-4-yl)-5-((1S,5R)-3-(8-(trifluoromethoxy)quinolin-5-yl)-5-(trifluoromethyl)-3-azabicyclo[3.1.0]hexan-1-yl)-1,3,4-oxadiazole] and `CN1CCC(Oc2nnc([C@]34CN(c5ccc(C#N)c6ncnn56)C[C@@]3(C(F)(F)F)C4)o2)CC1` [Compound 97, 5-((1S,5R)-1-(5-((1-methylpiperidin-4-yl)oxy)-1,3,4-oxadiazol-2-yl)-5-(trifluoromethyl)-3-azabicyclo[3.1.0]hexan-3-yl)-[1,2,4]triazolo[1,5-a]pyridine-8-carbonitrile] cannot be ordered by IC50: < 100 nM for the first, < 100 nM for the second.
